In brackets after ≈: the same amount, converted by molar mass. Entries after “also recorded” stand apart in the source; their conditions may differ.
How the values were obtained:
[1] = system: response regulator HsrA; assay: EMSA: inhibition of in vitro DNA binding activity of HsrA to promoter PporGDAB; assay type: biochemical, Helicobacter pylori; conditions: 6 μM HsrA, 120 ng PporGDAB, ligand 0.1-2 mM
Protocol: The DNA binding activities of recombinant HsrA and CosR were assessed in vitro by electrophoretic mobility shift assays (EMSAs). A 300-bp promoter region of the H. pylori 26695 operon porGDAB was used as the target sequence of HsrA in all EMSA experiments. Likewise, a 420-bp sequence of the C. jejuni sodB promoter (ATCC 33560) was used as the target DNA of CosR [90]. The oligonucleotides used for the synthesis of these promoter regions are described in Supplementary Table S4. Response regulators HsrA (6 μM) or CosR (700 nM) were mixed with 120 ng of their target promoters in a reaction buffer of 10 mM bis-Tris (pH 7.5), 40 mM KCl, 100 mg/L BSA, 1 mM DTT, and 5% glycerol. For the in vitro inhibition analyses, mixtures of target DNA and response regulator were exposed to 2, 1, 0.5, and 0.1 mM of each compound of interest, incubated at room temperature for 20 min, and then separated on a 6% non-denaturing electrophoresis. DMSO instead of inhibitors was included as a vehicle control, while an internal sequence of the Anabaena sp. pkn22 gene was used as the non-specific competitor in all assays. For DNA-protein binding visualization, gels were stained with the SYBR Safe DNA gel stain (Invitrogen) and analyzed with a Gel Doc 2000 Image Analyzer (Bio-Rad).

[2] = system: H. pylori ATCC 700392; assay: Checkerboard assay with first-line antibiotics; assay type: cell-based, Helicobacter pylori
Protocol: Potential synergisms between the selected HsrA inhibitors and first-line antibiotics were evaluated by using checkerboard assays, as previous described. Briefly, the antimicrobials to be tested were twofold serially diluted in BHI + FBS using independent sterile microtiter plates. Then, concentration gradients from two antimicrobials were aseptically mixed at equal volumes in a new microtiter plate, resulting in a matrix of 77 unique combinations of both compounds. Next, freshly prepared inoculum of H. pylori ATCC 700392 adjusted at 2 × 10^6 CFU/mL in BHI+ FBS were added to all wells, and plates were incubated for 72 h at 37 °C under microaerophilic conditions. […] The fractional inhibitory concentration index (FICI) for each antimicrobial combination was calculated as previously described. Values of FICI ≤ 0.5, 0.5 < FICI ≤ 1, 1 < FICI ≤ 4, and FICI > 4 were considered as indicative of synergistic, additive, neutral, or antagonist interactions, respectively.

[3] = system: K. pneumoniae ATCC 700603; assay: MIC/MBC according to EUCAST guidelines; assay type: cell-based, Klebsiella pneumonia; conditions: Klebsiella pneumoniae, ATCC700603
Protocol: The antimicrobial activities of the selected compounds against several Gram-negative and Gran-positive representative species of normal human microbiota were determined according to the EUCAST guidelines. Briefly, standardized inoculums (0.5 McFarland) were freshly prepared from overnight Mueller–Hinton agar plates of reference strains E. coli ATCC 25922, K. pneumonia ATCC 700603, E. faecalis ATCC 29212, S. aureus ATCC 29213, S. epidermidis ATCC 12228, and S. agalactiae ATCC 12386. Next, bacterial suspensions adjusted to 5 × 10^5 CFU/mL in Mueller–Hinton broth were exposed to a range of concentrations from 64 to 0.031 mg/L of the selected compounds. DMSO and conventional antibiotics LVX and AMP were included as controls. […] Experiments were performed twice in triplicate.

[4] = Cytotoxicity, PrestoBlue cell viability assay; assay type: cell-based; conditions: human; HeLa cells, 24 h exposure; read-out: CC50 (50% cytotoxic concentration)
Protocol: (§1) The in vitro toxicity of the selected HsrA inhibitors was determined on HeLa cells by the PrestoBlue^TM assay, as previously described. Briefly, cells were cultured at 37 °C with 5% CO2 in Dulbecco’s modified Eagle’s medium containing 10% fetal bovine serum, 1% L-GlutaMAX^TM solution (Thermo Fisher Scientific), and 1% penicillin/streptomycin. When 80% confluence was achieved, cells were detached, counted, seeded in 96-well microplates at a density of 10,000 cells per well, and allowed to adhere for 24 h. Next, the mammalian cells were exposed to selected compounds at a range of 0.125 to 128 mg/L. After 24 h of exposure, the cell viability was measured with the PrestoBlue^TM cell viability reagent (Thermo Fisher Scientific), according to the manufacturer’s instructions. Experiments were performed twice in triplicate. The 50% cytotoxic concentration (CC50) of each compound was calculated by regression analysis using Microsoft Excel. Therapeutic index (TI) values were calculated as the ratio of the CC50 to the higher MIC observed for each compound [111].

[5] = system: HeLa cells; assay: Cytotoxicity, PrestoBlue cell viability assay; assay type: cell-based; conditions: for TI (CC50/MIC), therapeutic index: CC50 on HeLa / higher MIC observed against H. pylori
Protocol: as §1

[6] = system: H. pylori strain ATCC 700392; assay: Time-kill kinetic assay; assay type: cell-based, Helicobacter pylori; conditions: 4 × MIC, 10^4 CFU/mL
Protocol: Time-kill kinetics of selected HsrA inhibitors were carried out as previously described, with slight modifications. Briefly, fresh grown cells of H. pylori strain ATCC 700392 were resuspended in BHI + FBS at 1.0 × 10^4 CFU/mL and exposed to 4 × MIC of each compound. Bacteria exposed to DMSO (vehicle) instead of the HsrA inhibitors were included as a control. All cultures were incubated at 37 °C under microaerobic conditions, and aliquots were taken after 0, 2, 4, 8, and 24 h of exposure for CFU determination. Experiments were performed twice in triplicate. Results were presented as log10 CFU/mL versus hours of exposure. Differences in H. pylori survival were subjected to statistical analysis by using the Mann–Whitney U test.

[7] = in combination with CLR (clarithromycin)
[8] = in combination with LVX (levofloxacin)
[9] = in combination with MTZ (metronidazole)

| Compound | Inhibition of in vitro DNA binding activity of HsrA (EMSA) [1] | FICI [2, 7] | FICantibiotic [2, 7] | FICinhibitor [2, 7] | FICI [2, 8] | FICantibiotic [2, 8] | FICinhibitor [2, 8] | FICI [2, 9] | FICantibiotic [2, 9] | FICinhibitor [2, 9] | MBC [3] [µg/mL] | MIC [3] [µg/mL] | CC50 at 24 h [4] [µg/mL] | Cytotoxicity at 8 mg/L ([5]; HeLa cells, 8 mg/L, 24 h) | Exposure time after which 10^4 H. pylori cells were completely killed [6] [h] | Interaction [2, 7] | Interaction [2, 8] | Interaction [2, 9] | TI (CC50/MIC), therapeutic index [5] | Cell death ([5]; HeLa cells, 8 mg/L, 24 h) [%] |
| --- | --- | --- | --- | --- | --- | --- | --- | --- | --- | --- | --- | --- | --- | --- | --- | --- | --- | --- | --- | --- |
| CSc1cccc(NC(=S)NCCNc2c([N+](=O)[O-])cc(C(F)(F)F)cc2[N+](=O)[O-])c1 [Ligand IV] | appreciably stronger; also recorded: noticeably inhibited | 2 | 1 | 1 | 2 | 1 | 1 | 2 | 1 | 1 | > 64 | > 64 | 135 (≈ 284 µM) | completely safe | 4 | – | – | – | – | – |
| N#Cc1cnn(-c2ccc(C(F)(F)F)cc2[N+](=O)[O-])c1N [Ligand I] | noticeably inhibited | 2 | 1 | 1 | 2 | 1 | 1 | 0.625 | 0.125 | 0.5 | > 64 | > 64 | 119 (≈ 401 µM) | completely safe | 8 | Neutral (no interaction or neutral (FICI > 1 to ≤4)) | Neutral (no interaction or neutral (FICI > 1 to ≤4)) | Additive (additive (FICI > 0.5 to ≤1)) | – | – |
| NC(=NOC(=O)Nc1ccc(Cl)cc1)c1csc([N+](=O)[O-])c1 [Ligand V, N′-{[(4-chloroanilino)carbonyl]}oxy-5-nitrothiophene-3-carboximidamide] | noticeably inhibited | 0.56 | 0.5 | 0.06 | 2 | 1 | 1 | 0.625 | 0.125 | 0.5 | > 64 | > 64 | 183 (≈ 538 µM) | completely safe | 2 | – | Neutral (no interaction or neutral (FICI > 1 to ≤4)) | – | – | – |
| OC1(C(F)(F)F)CC(c2ccc3c(c2)Nc2ccccc2S3)=NN1 (stereo not drawn) [Ligand VIII] | appreciably stronger; also recorded: noticeably inhibited | 0.53 | 0.5 | 0.03 | 2 | 1 | 1 | 0.625 | 0.5 | 0.125 | > 64 | > 64 | 6.5 (≈ 18.5 µM) | – | 2 | – | Neutral (no interaction or neutral (FICI > 1 to ≤4)) | – | 3.2 | 68 |
| N#C/C(=C\C=C\c1ccccc1)c1nc2ccccc2[nH]1 [Ligand XII] | noticeably inhibited | 0.75 | 0.25 | 0.5 | 1 | 0.5 | 0.5 | 0.5 | 0.25 | 0.25 | > 64 | > 64 | 13.4 (≈ 49.4 µM) | – | 4 | Additive (additive (FICI > 0.5 to ≤1)) | – | – | 6.7 | – |
| CSc1cccc(Nc2nc(C(C)(C)C)cs2)c1 [Ligand XI] | noticeably inhibited | 0.75 | 0.25 | 0.5 | 2 | 1 | 1 | 0.563 | 0.5 | 0.063 | > 64 | > 64 | 21.8 (≈ 78.3 µM) | completely safe | 4 | – | Neutral (no interaction or neutral (FICI > 1 to ≤4)) | – | 5.4 | – |

Reference: paper PMC11432330, “Novel Drug-like HsrA Inhibitors Exhibit Potent Narrow-Spectrum Antimicrobial Activities against Helicobacter pylori” (International Journal of Molecular Sciences, 2024)
